The values that follow come from publication PMC9780888, “4-Isobutylmethcathinone—A Novel Synthetic Cathinone with High In Vitro Cytotoxicity and Strong Receptor Binding Preference of Enantiomers” (Pharmaceuticals, 2022).

Structures can show the parent of a compound that is named as a salt.

Test [1] relates to L929. Description: WST-1 viability assay, L929 cells. It counts as cell-based, mouse. The settings on record: L929, 72 h incubation, WST-1, four replicates. On the procedure: (§1) Based on the novelty of the IMBcat compound, we aimed to evaluate its in vitro cytotoxicity in selected model cell lines as well as to determine the toxicity of the IBMcat enantiomers, since both the chemical structure and chirality of compounds could play a role in their bioactivity (Table 2). The cytotoxic profile of the IBMcat was determined by a WST-1 viability assay after 72-h treatment. For this purpose, cell lines derived from distinct tissues, often affected by NPSs, were chosen, i.e., cells of kidney, hepatic, neural, urinary, and intestinal origin as well as keratinocytes and primary fibroblasts (HEK 293T, Hep G2, HMC-3, SH-SY5Y, 5637, CaCo-2, HaCaT, MRC-5, and BJ, respectively). The cytotoxicity of IBMcat and its enantiomers was concentration- and cell-line dependent, the IC50 values, which were in the micromolar range, are given in Table 2. […] This was followed by embryonic kidney cells HEK 293T (immortalized), in which the toxicity ranged between a concentration of 123 and 192 µM.
(§2) In this study, the following cell lines were used: HEK 293T, Hep G2, HMC-3, SH-SY5Y, 5637, CaCo-2, HaCaT, MRC-5, BJ, and L929. […] The selected cell lines were chosen so that not only primary noncancerous cells are evaluated but also cells derived from tissues, which are the most often affected by novel synthetic drugs, i.e., kidney, liver, urinary bladder, and nervous tissue. […]
(§3) The cytotoxicity of IBMCat was evaluated in vitro by using a WST-1 viability assay (Sigma-Aldrich, Saint Louis, MO, USA) based on the transformation of a tetrazolium salt into colored formazan in metabolically active cells. […] After 72 h of additional incubation of the cells, their viability was determined by WST-1. […] The cells were incubated for 2 h, after which absorbance of the raised formazan was measured spectrophotometrically at 450 nm (reference wavelength of 630 nm) using a UV-Vis spectrometer (Bio-Rad Laboratories, Hercules, CA, USA). […] The half-maximal inhibitory concentrations (IC50) were calculated from the measured dose–response curves by AAT Bioquest.

For test [2], the system named is CaCo-2. Description: WST-1 viability assay, CaCo-2 cells. The settings on record: CaCo-2, 72 h incubation, WST-1, four replicates. Format: cell-based, human. On the procedure:
as §1, §2, §3

In test [3] the test system is HaCaT. Nature of the test: WST-1 viability assay, HaCaT cells. The settings on record: 72 h incubation, WST-1, four replicates. Format: cell-based, human. On the procedure:
as §1, §2, §3
On the technique in general: Tetrazolium assays rely on reduction of a dye to a coloured formazan, in cell work by metabolically active cells.

As a reminder, the IC50 is the concentration needed to halve the response being measured. Read a high IC50 as weaker potency. Regarding `CN[C@H](C)C(=O)c1ccc(CC(C)C)cc1` [R-IBMCat], the IC50 is 39 ± 2 µM in test [1], 331 ± 19 µM in test [2] and 329 ± 43 µM in test [3].

Consider `CNC(C)C(=O)c1ccc(CC(C)C)cc1.Cl` (stereo not drawn) [IBMcat, 4-isobutylmethcathinone hydrochloride], for which the IC50 in test [1] (Mus musculus) stood at 36 ± 4 µM; in test [2] (Homo sapiens), 389 ± 42 µM; in test [3] (Homo sapiens), 357 ± 40 µM.

Take `CN[C@@H](C)C(=O)c1ccc(CC(C)C)cc1` [S-IBMCat, (S)-4-isobutylmethcathinone hydrochloride]: the IC50 was 33 ± 5 µM in test [1] (Mus musculus), 390 ± 17 µM in test [2] (Homo sapiens) and 361 ± 22 µM in test [3] (Homo sapiens).
